From the supplement of paper PMC10307832

How the values were obtained:
Test in all cases: relative viability (nuclei count vs DMSO), 5 days (fraction); higher = more cells survive
NCI-H322M = system: NCI-H322M
Procedure, shortened: (§1)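 Dosing by pin tool came one day after lung cancer cell lines were seeded in 1536-well plates, using either one drug or a fixed anchor-drug dose plus five library-drug doses (not always all listed) in √10 steps. After 5 days, nuclei were counted on 4× images. Relative viability is treated-well nuclei count divided by vehicle-well nuclei count, and values are medians of duplicate plates.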

201T = system: 201T
Procedure, shortened: as §1

NCI-H2126 = system: NCI-H2126
Procedure, shortened: as §1

COR-L 105 = system: COR-L 105
Procedure, shortened: as §1

NCI-H650 = system: NCI-H650
Procedure, shortened: as §1

NCI-H2405 = system: NCI-H2405
Procedure, shortened: as §1

NCI-H2347 = system: NCI-H2347
Procedure, shortened: as §1

NCI-H2087 = system: NCI-H2087
Procedure, shortened: as §1

NCI-H520 = system: NCI-H520
Procedure, shortened: as §1

ChaGo-K-1 = system: ChaGo-K-1
Procedure, shortened: as §1

HCC-78 = system: HCC-78
Procedure, shortened: as §1

NCI-H522 = system: NCI-H522
Procedure, shortened: as §1

COc1cc(N2CCC(C(N)=O)CC2)ccc1Nc1nc(N)c(Cl)c(Nc2ccccc2S(=O)(=O)C(C)C)n1 [HG-5-88-01] + Cc1nc(Nc2ncc(C(=O)Nc3c(C)cccc3Cl)s2)cc(N2CCN(CCO)CC2)n1 [Dasatinib] (partner 0.075 µM)
relative viability (NCI-H322M; first compound 0.04 µM): 0.247 | relative viability (NCI-H322M; first compound 0.1265 µM): 0.194 | relative viability (NCI-H322M; first compound 0.4 µM): 0.189 | relative viability (NCI-H322M; first compound 4 µM): 0.216 | relative viability (201T; first compound 0.04 µM): 0.616 | relative viability (201T; first compound 0.1265 µM): 0.56 | relative viability (201T; first compound 0.4 µM): 0.545 | relative viability (201T; first compound 1.265 µM): 0.512 | relative viability (201T; first compound 4 µM): 0.267 | relative viability (NCI-H2126; first compound 0.04 µM): 0.617 | relative viability (NCI-H2126; first compound 0.1265 µM): 0.565 | relative viability (NCI-H2126; first compound 0.4 µM): 0.449 | relative viability (NCI-H2126; first compound 1.265 µM): 0.34 | relative viability (NCI-H2126; first compound 4 µM): 0.259 | relative viability (COR-L 105; first compound 0.04 µM): 0.305 | relative viability (COR-L 105; first compound 0.1265 µM): 0.314 | relative viability (COR-L 105; first compound 0.4 µM): 0.254 | relative viability (COR-L 105; first compound 1.265 µM): 0.203 | relative viability (COR-L 105; first compound 4 µM): 0.19 | relative viability (NCI-H650; first compound 0.04 µM): 0.441 | relative viability (NCI-H650; first compound 0.1265 µM): 0.46 | relative viability (NCI-H650; first compound 0.4 µM): 0.378 | relative viability (NCI-H650; first compound 1.265 µM): 0.391 | relative viability (NCI-H650; first compound 4 µM): 0.304 | relative viability (NCI-H2405; first compound 0.04 µM): 0.207 | relative viability (NCI-H2405; first compound 0.1265 µM): 0.179 | relative viability (NCI-H2405; first compound 0.4 µM): 0.155 | relative viability (NCI-H2405; first compound 1.265 µM): 0.197 | relative viability (NCI-H2405; first compound 4 µM): 0.153 | relative viability (NCI-H2347; first compound 0.04 µM): 0.267 | relative viability (NCI-H2347; first compound 0.1265 µM): 0.319 | relative viability (NCI-H2347; first compound 0.4 µM): 0.318 | relative viability (NCI-H2347; first compound 1.265 µM): 0.303 | relative viability (NCI-H2347; first compound 4 µM): 0.295 | relative viability (NCI-H2087; first compound 0.04 µM): 0.826 | relative viability (NCI-H2087; first compound 0.1265 µM): 0.787 | relative viability (NCI-H2087; first compound 0.4 µM): 0.601 | relative viability (NCI-H2087; first compound 1.265 µM): 0.389 | relative viability (NCI-H2087; first compound 4 µM): 0.167 | relative viability (NCI-H520; first compound 0.04 µM): 0.201 | relative viability (NCI-H520; first compound 0.1265 µM): 0.176 | relative viability (NCI-H520; first compound 0.4 µM): 0.184 | relative viability (NCI-H520; first compound 1.265 µM): 0.162 | relative viability (NCI-H520; first compound 4 µM): 0.2 | relative viability (ChaGo-K-1; first compound 0.04 µM): 0.776 | relative viability (ChaGo-K-1; first compound 0.1265 µM): 0.63 | relative viability (ChaGo-K-1; first compound 0.4 µM): 0.509 | relative viability (ChaGo-K-1; first compound 1.265 µM): 0.57 | relative viability (ChaGo-K-1; first compound 4 µM): 0.401 | relative viability (HCC-78; first compound 0.04 µM): 0.356 | relative viability (HCC-78; first compound 0.1265 µM): 0.286 | relative viability (HCC-78; first compound 0.4 µM): 0.22 | relative viability (HCC-78; first compound 1.265 µM): 0.197 | relative viability (HCC-78; first compound 4 µM): 0.174 | relative viability (NCI-H522; first compound 0.04 µM): 1.02 | relative viability (NCI-H522; first compound 0.1265 µM): 0.897 | relative viability (NCI-H522; first compound 0.4 µM): 0.813 | relative viability (NCI-H522; first compound 1.265 µM): 0.781 | relative viability (NCI-H522; first compound 4 µM): 0.849
